Data set [1] concerns the target T1, Serine/threonine-protein kinase PknB (Mycobacterium tuberculosis, UniProt P9WI81).
T1 sequence (P9WI81 whole entry): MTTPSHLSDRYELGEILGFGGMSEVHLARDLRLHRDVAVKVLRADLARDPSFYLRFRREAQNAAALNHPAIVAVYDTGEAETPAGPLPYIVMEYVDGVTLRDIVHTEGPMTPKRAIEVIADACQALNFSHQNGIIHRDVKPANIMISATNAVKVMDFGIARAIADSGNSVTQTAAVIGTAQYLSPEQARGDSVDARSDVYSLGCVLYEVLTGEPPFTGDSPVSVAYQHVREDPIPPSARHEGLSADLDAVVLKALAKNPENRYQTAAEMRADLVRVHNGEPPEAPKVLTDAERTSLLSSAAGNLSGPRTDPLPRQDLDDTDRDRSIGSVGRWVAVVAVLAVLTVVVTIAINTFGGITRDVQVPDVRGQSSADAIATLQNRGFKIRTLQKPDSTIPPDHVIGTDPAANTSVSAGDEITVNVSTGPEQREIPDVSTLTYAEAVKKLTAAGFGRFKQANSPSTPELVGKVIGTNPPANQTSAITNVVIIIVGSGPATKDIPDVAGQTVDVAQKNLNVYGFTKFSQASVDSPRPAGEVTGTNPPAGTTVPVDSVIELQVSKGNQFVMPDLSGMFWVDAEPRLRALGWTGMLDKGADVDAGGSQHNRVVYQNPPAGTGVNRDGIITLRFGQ
The data set can be described thus: Inhibition of Mycobacterium tuberculosis recombinant PknB (1 to 331 residues) expressed in Escherichia coli BL21-Rosetta cells using GarA and ATP as substrate preincubated with enzyme for 10 mins followed by substrate addition and measured after 1 hr by ATP-competitive biochemical assay.

In data set [2] the target is T1, Serine/threonine-protein kinase PknB. The data set can be described thus: Binding affinity to Mycobacterium tuberculosis recombinant N-terminal His-tagged PknB (1 to 331 residues) expressed in Escherichia coli DH5alpha cells by microscale thermophoresis analysis. A general note: Microscale thermophoresis detects binding through changes in fluorescence in a small temperature gradient.

Data set [3] concerns the target Cyclin-dependent kinase 2/cyclin A (Homo sapiens, UniProt P24941). The data set can be described thus: Inhibition of human Cdk2/Cyclin A using Myelin basic protein as substrate by ATP competitive assay. It counts as toxicity.
Data set [4] deals with Mycobacterium tuberculosis. The data set can be described thus: Antimycobacterial activity against Mycobacterium tuberculosis H37Ra ATCC 25177 assessed as inhibition of bacterial growth incubated for 12 days by Alamar Blue based fluorescence analysis. It counts as functional. Conditions: H37Ra ATCC 25177, 288 h, time 12 day.
Data set [5] is described as follows: Lipophilicity, logD of the compound in octanol and phosphate buffer at pH 7.4 at 66.7 uM by LC-MS/MS analysis. It counts as physicochemical. Conditions: octanol/water, pH 7.4, 66.7 µM.
A further data set concerns THP-1. The data set can be described thus: Cytotoxicity against human THP-1 cells assessed as reduction in cell viability incubated for 72 hrs by CellTiter-Glo luminescent assay. It counts as toxicity, cell-based. Conditions: thp-1, 72 h. Background: ATP-based viability assays read luminescence as a measure of living cells.
The nature of data set [6]: Toxicity against Zebrafish embryo assessed as embryo survival at 5 uM incubated for 5 days and measured daily. On the set-up: species or system Danio rerio. To be noted: zebrafish embryos, time 5 day.
Data set [7] addresses T1, Serine/threonine-protein kinase PknB. The data set can be described thus: Binding affinity to Mycobacterium tuberculosis partial length PknB (M1 to G279 residues) expressed in mammalian expression system by KdELECT kinase assay.
The next data set has as its target CDK4/Cyclin D3 (Homo sapiens, UniProt P11802). The data set can be described thus: Binding affinity to human full length CDK4 (M1 to E303 residues) expressed in mammalian expression system/CyclinD3 by KdELECT kinase assay. It counts as toxicity.
The target of data set [8] is Glycogen synthase kinase-3 beta (Homo sapiens, UniProt P49841). The data set can be described thus: Binding affinity to human full length GSK-3 beta (M1 to T433 residues) expressed in mammalian expression system by KdELECT kinase assay. It counts as toxicity.
The target of data set [9] is Serine/threonine-protein kinase mTOR (Homo sapiens, UniProt P42345). The data set can be described thus: Binding affinity to human partial length mTOR (L1382 to W2549 residues) expressed in mammalian expression system by KdELECT kinase assay. It counts as toxicity.
Data set [10] concerns the target Serine/threonine-protein kinase pim-1 (Homo sapiens, UniProt P11309). The data set can be described thus: Binding affinity to human partial length Pim1 (A15 to K313 residues ) expressed in bacterial expression system by KdELECT kinase assay. It counts as toxicity.
Data set [11] can be described thus: Selectivity ratio of Kd for human full length CDK4 (M1 to E303 residues) expressed in mammalian expression system/CyclinD3 to Kd for Mycobacterium tuberculosis partial length PknB (M1 to G279 residues) expressed in mammalian expression system.
Data set [12] can be described thus: Selectivity ratio of Kd for human full length GSK-3 beta (M1 to T433 residues) expressed in mammalian expression system to Kd for Mycobacterium tuberculosis partial length PknB (M1 to G279 residues) expressed in mammalian expression system.
A short description of data set [13]: Selectivity ratio of Kd for human partial length mTOR (L1382 to W2549 residues) expressed in mammalian expression system to Kd for Mycobacterium tuberculosis partial length PknB (M1 to G279 residues) expressed in mammalian expression system.
Data set [14] in a line: Selectivity ratio of Kd for human partial length Pim1 (A15 to K313 residues ) expressed in bacterial expression system to Kd for Mycobacterium tuberculosis partial length PknB (M1 to G279 residues) expressed in mammalian expression system.

Converted amounts (≈) assume the structure as drawn.

Consider `CN1CCN(c2ccc(Nc3nccc(-c4ccc5ccccc5c4)n3)cc2C(F)(F)F)CC1`, for which, in [1], the IC50 amounted to 3.4 µM and the Ki is 970 nM. Moreover, the Kd in data set [2] came to 430 nM. Moreover, in data set [3], the IC50 was greater than 40 µM. Further, in data set [4], the MIC was 6 µM (≈ 2.78 µg/mL). In [5], the logD was greater than 5.7. The cytotoxic concentration (CC50) in the data set with THP-1 came out at 3.04 µM. In data set [6], the survival at 120 h, 5 µM came out at 100%.
On to `Cc1ccc(-c2ccnc(Nc3ccc(N4CCN(C)CC4)c(C(F)(F)F)c3)n2)cc1`, for which, in data set [1], the IC50 was 1.6 µM and the inhibitory constant (Ki) stood at 440 nM. Further, in [2], the Kd was 30 nM. In data set [3], this compound registered an IC50 greater than 40 µM. In addition, the MIC in [4] amounted to 12 µM (≈ 5.13 µg/mL). For the same compound, in data set [5], the logD is greater than 5.85. Moreover, in the data set with THP-1, the CC50 came out at 4.94 µM. Also, the survival at 120 h, 5 µM in data set [6] turned out to be 0%.
On to `CN1CCN(c2ccc(Nc3nccc(-c4cccnc4)n3)cc2C(F)(F)F)CC1`, for which the values for the IC50 in data set [1] and in [3] were 1.7 µM and 9.3 µM, respectively. Further, the Ki in data set [1] is 470 nM. Further, the Kd in data set [2] was determined as 61 nM. Besides, the MIC in data set [4] amounted to 100 µM (≈ 41.4 µg/mL). In data set [5], this compound had a logD of 3.53. Moreover, the CC50 in the data set on THP-1 worked out at 1.06 µM. In [6], the survival at 120 h, 5 µM came to 56%.
As to `COc1cccc(-c2ccnc(Nc3ccc(N4CCN(C)CC4)c(C(F)(F)F)c3)n2)c1`, in data set [1], the IC50 stood at 6.6 µM and the Ki was 1900 nM. Also, in data set [2], the Kd was 660 nM. This compound showed an IC50 in [3] of 10 µM.
Regarding `CN1CCN(c2ccc(Nc3nccc(-c4ccc(Cl)cc4)n3)cc2C(F)(F)F)CC1`, in [1], the IC50 is 8.1 µM and the Ki came out at 2400 nM. In data set [2], the Kd was found to be 2200 nM. The compound further showed an IC50 in data set [3] greater than 40 µM.
Consider `CN1CCN(c2ccc(Nc3nccc(-c4ccc(F)cc4)n3)cc2C(F)(F)F)CC1`, for which, in [1], the IC50 was greater than 40 µM and the Ki was greater than 12000 nM. Further, in data set [2], the Kd worked out at 3000 nM. Besides, the IC50 in data set [3] stood at 12 µM.
For `CN1CCN(c2ccc(Nc3nccc(-c4ccnc(Cl)c4)n3)cc2C(F)(F)F)CC1`, the IC50 stood at 1.1 µM in data set [1] and 7.2 µM in data set [3]. Also, in [1], the Ki was found to be 290 nM. Moreover, the Kd was determined as 48 nM in [2]; 47 nM in data set [7]; 440 nM at CDK4/Cyclin D3; 2.6 µM in [8]; 0.69 µM in [9]; 2200 nM in data set [10]. Moreover, in [4], the MIC was determined as 25 µM (≈ 11.2 µg/mL). Besides, in [5], the logD stood at 4.3. In addition, the CC50 with THP-1 was determined as 1.14 µM. For the same compound, in data set [6], the survival at 120 h, 5 µM stood at 89%.
Regarding `CN1CCN(c2ccc(Nc3nccc(-c4cccc(C#N)c4)n3)cc2C(F)(F)F)CC1`, in [1], the concentration for half-maximal inhibition (IC50) was found to be 2.5 µM and the Ki came out at 700 nM. Further, the Kd in data set [2] came to 73 nM. This compound displayed an IC50 in data set [3] greater than 40 µM.
Consider `CN1CCN(c2ccc(Nc3nccc(-c4cccc(F)c4)n3)cc2C(F)(F)F)CC1`, for which the figures for the IC50 in [1] and in [3] were 6.1 µM and 24 µM, respectively. Further, the Ki in [1] is 1800 nM. Further, the Kd in data set [2] stood at 710 nM.
For `CN1CCN(c2ccc(Nc3nccc(-c4ccc([N+](=O)[O-])cc4)n3)cc2C(F)(F)F)CC1`, in data set [1], the IC50 is 3.8 µM and the Ki came to 1100 nM. In addition, in [2], the Kd amounted to 410 nM. In data set [3], this compound showed an IC50 of 0.18 µM.
As for `CN1CCN(c2ccc(Nc3nccc(-c4ccnc(NCc5ccccc5)c4)n3)cc2C(F)(F)F)CC1`, in [1], the IC50 was found to be 7.9 µM and the Ki stood at 2300 nM. Also, in [2], the Kd was 2100 nM. In data set [3], this compound returned an IC50 of 7.3 µM.
With `CN1CCN(c2ccc(Nc3nccc(-c4ccc(C#N)cc4)n3)cc2C(F)(F)F)CC1`, in data set [1], the concentration for half-maximal inhibition (IC50) came out at 5.1 µM and the Ki was determined as 1500 nM. For the same compound, the Kd in data set [2] was 700 nM. The compound further gave an IC50 in data set [3] of 13 µM.
With `CN1CCN(c2ccc(Nc3nccc(-c4cccc(Cl)c4)n3)cc2C(F)(F)F)CC1`, the concentration for half-maximal inhibition (IC50) in data set [1] is 4.3 µM; in data set [3], greater than 40 µM. Moreover, the Ki in data set [1] is 1200 nM. The Kd is 340 nM in data set [2]; 180 nM in data set [7]; 3000 nM on CDK4/Cyclin D3; 9.3 µM in data set [8]; greater than 10 µM in [9]; greater than 10000 nM in [10]. Moreover, the MIC in [4] was 12 µM (≈ 5.37 µg/mL). This compound also displayed a logD in data set [5] greater than 6. Also, in the data set with THP-1, the CC50 was found to be 5.28 µM. In addition, in data set [6], the survival at 120 h, 5 µM is 57%.
For the compound `CNc1cc(-c2ccnc(Nc3ccc(N4CCN(C)CC4)c(C(F)(F)F)c3)n2)ccn1`, in [1], the IC50 was 9.4 µM and the Ki is 2700 nM. Besides, the Kd in [2] was 920 nM. Moreover, the IC50 in data set [3] turned out to be 39 µM.
Consider `CN1CCN(c2ccc(Nc3nccc(-c4cccc([N+](=O)[O-])c4)n3)cc2C(F)(F)F)CC1`, for which the IC50 in data set [1] is 1.2 µM; in data set [3] it was greater than 40 µM. The Ki in data set [1] was found to be 320 nM. The Kd in data set [2] is 34 nM; in data set [7] it was 19 nM; on CDK4/Cyclin D3, 910 nM; in data set [8], 3.8 µM; in data set [9], 5.8 µM; in data set [10], 2200 nM. For the same compound, the Selectivity ratio in data set [11] was 48; in [12], greater than 100; in data set [13] it was greater than 100; in data set [14], greater than 100. In addition, the MIC in data set [4] stood at 19 µM (≈ 8.71 µg/mL). Besides, in data set [5], the logD stood at 4.5. Also, the CC50 in the data set on THP-1 came out at 3.89 µM. Further, the survival at 120 h, 5 µM in [6] is 0%.
As for `CN1CCN(c2ccc(Nc3nccc(-c4ccccc4)n3)cc2C(F)(F)F)CC1`, the IC50 was 4.6 µM in data set [1] and greater than 40 µM in data set [3]. Besides, the Ki in [1] was 1300 nM. In addition, the Kd is 1200 nM in [2]; 430 nM in [7]; 1200 nM at CDK4/Cyclin D3; 2.8 µM in [8]; greater than 10 µM in data set [9]; 5200 nM in data set [10]. In [4], the MIC is 25 µM (≈ 10.3 µg/mL). This compound also had a logD in [5] of 4.8. Moreover, the CC50 with THP-1 came out at 4.1 µM. Moreover, the survival at 120 h, 5 µM in [6] turned out to be 96%.

By IC50 is commonly meant the concentration at which inhibition is half-maximal. The term Ki denotes a dissociation constant, usually derived from enzyme kinetics or from competition with a known ligand. Broadly, the Kd is the constant that tells how readily two partners part at equilibrium. Usually MIC stands for the lowest concentration found to suppress growth. Broadly, the logD is the decadic logarithm of the distribution of all forms, ionised or not, between an organic phase and buffer at a given pH. The term CC50 denotes the concentration giving 50% cytotoxicity.

Source of the values: ChEMBL document CHEMBL5226357, “Engineering Selectivity for Reduced Toxicity of Bacterial Kinase Inhibitors Using Structure-Guided Medicinal Chemistry” (ACS Med Chem Lett, 2021).
